pEC50: −log10 of the molar value.
What follows are molecules tested against T1, acetylcholine muscarinic M1 receptor (Homo sapiens, UniProt P11229) (assay: FLIPR intracellular calcium assay for M1 receptor positive allosteric modulator activity). Conditions: not given.
T1 construct: expressed in transfected cells; host or cells: CHOnfat cells (CHO; also called CHOK1/hM1)
T1 sequence (P11229 1-460): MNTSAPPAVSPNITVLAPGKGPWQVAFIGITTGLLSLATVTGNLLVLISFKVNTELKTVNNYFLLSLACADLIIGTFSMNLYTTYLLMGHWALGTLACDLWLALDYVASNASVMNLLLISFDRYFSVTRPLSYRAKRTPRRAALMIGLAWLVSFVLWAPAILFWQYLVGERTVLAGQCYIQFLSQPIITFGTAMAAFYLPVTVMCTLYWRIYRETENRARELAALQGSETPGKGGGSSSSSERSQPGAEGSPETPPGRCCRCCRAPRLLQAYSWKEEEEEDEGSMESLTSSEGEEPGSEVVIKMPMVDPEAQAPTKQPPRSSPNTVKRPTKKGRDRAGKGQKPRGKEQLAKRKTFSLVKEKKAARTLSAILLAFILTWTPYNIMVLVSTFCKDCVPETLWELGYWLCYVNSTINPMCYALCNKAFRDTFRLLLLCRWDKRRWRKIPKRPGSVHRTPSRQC
Type: cell-based
Experimental: The assay studies the effect of one or several concentrations of test compounds on basal or acetylcholine-stimulated Ca^2+ levels using FLIPR.
Compounds are prepared and subjected to a preincubation period of 4 min. Thereafter, a single EC20 concentration of acetylcholine is added to each well (3 nM final). The intracellular Ca^2+ level of each sample is measured and compared to an acetylcholine control to determine any modulatory activity.
Cells: CHOnfat/hM1, hM2, hM3 or hM4 cells are plated 24 hr before the assay at a density of 18,000 cells/well (100 μl) in a 384 well plate. CHOnfat/hM1 and CHOnfat/hM3 Growth Medium: 90% DMEM (Hi Glucose); 10% HI FBS; 2 mM L-glutamine; 0.1 mM NEAA; Pen-Strep; and 1 mg/ml Geneticin, are added. For M2Gqi5CHOnfat and M4Gqi5CHOnfat cells, an additional 600 μg/ml hygromycin is added.
Buffers. […] Dye Loading Buffer: Assay Buffer plus 1% Fetal Bovine Serum and Fluo-4AM/Pluronic Acid Mixture. […] 20% Pluronic Acid Solution stock, with a concentration of 0.04% in Buffer, 0.02% in Assay.
65 μL of 2 mM Fluo-4AM are mixed with 130 of 20% Pluronic Acid. The resulting solution and 650 μL FBS is added to the assay buffer for a total volume of 65 mL. Positive Controls: 4-Br-A23187: 10 mM in DMSO; final concentration 10 μM. Acetylcholine: 10 mM in water, working stock at both 20 μM and 30 μM in assay buffer, final concentration of 10 μM. This is used to check the maximum stimulation of the CHOK1/hM1 cells. 20 μM (2×) acetylcholine is added in the preincubation part of the assay, and the 30 μM (3×) stock is added in the second part. (EC20)Acetylcholine: 10 mM in water, working stock of 9 nM (3×), and final concentration in assay is 3 nM. This is used after the preincubation with test compounds. Addition of the EC20 Acetylcholine to each well with a test compound will ascertain any modulator activity. 24 wells contain 3 nM Acetylcholine alone as a control.
Determining Activity of Putative Compounds:
Four 96-well plates are combined into a 384-well plate using Mosquito Nanolitre Pipetting System by transferring 1 μl of serial diluted compounds to each well, and 1 mM acetylcholine (100× stock concentration) were added as a control. Using Temo, 49 μl assay buffer is added to each well of the 384-well plate right before assay.
In a 96-well Whatman 2 ml Uniplate, 9 nM Acetylcholine (3×) is pipetted into wells corresponding to the screening compounds and into control wells. The 30 μM acetylcholine control (3×) is added into control wells and the 3× agonist plate is transferred into a 384-well plate.
Cells are washed three times with 100 μL of buffer, leaving 30 μL of buffer in each well. Using Multimek, 30 μL of Dye Loading Buffer is added into each well and incubated at 37° C., 5% CO2 for up to one hr.
After 60 min, the cells are washed three times with 100 μL of buffer, leaving 30 μL of buffer in each well. The cell plate, screening plate, and agonist addition plates are placed on the platform in the FLIPR and the door is closed. A signal test to check background fluorescence and basal fluorescence signal is performed. Laser intensity is adjusted if necessary.
4 min of preincubation with the test compounds is provided to determine any agonist activity on the M1 receptor by comparison to the 1 mM acetylcholine control. After preincubation, the EC20 value of acetylcholine (3 nM final) is added to determine any modulator activity.

| SMILES | pEC50 |
| --- | --- |
| O=C(O)c1cc(CN2CCC(c3ccccc3)CC2)c2ccccn2c1=O [Example 25] | 5.87 |

Same assay, conditions: CHOnfat/hM1 cells, 4 min preincubation, then EC20 acetylcholine (3 nM final), intracellular Ca2+ by FLIPR384; read-out: IP Value (inflection point)

| SMILES | pEC50 |
| --- | --- |
| O=C(O)c1cc(CN2CCCCC2c2nc3cc(F)ccc3[nH]2)c2ccccn2c1=O (stereo not drawn) [Example 14] | 6.29 |
| O=C(O)c1cc(CN2CCCCC2c2ccncc2)c2ccccn2c1=O (stereo not drawn) [Example 6] | 5.65 |
| Cn1c(C2CCN(Cc3cc(C(=O)O)c(=O)n4ccccc34)CC2)nc2ccccc21 [Example 91, 1-{[4-(1-methyl-1H-benzimidazol-2-yl)piperidin-1-yl]methyl}-4-oxo-4H-quinolizine-3-carboxylic Acid] | 4.52 |
| O=C(O)c1cc(CN2CCC(c3nc4ccccc4[nH]3)CC2)c2ccccn2c1=O [Example 85] | 6.91 |
| O=C(O)c1cc(CN2CCC(c3c[nH]c4ccc(O)cc34)CC2)c2ccccn2c1=O [Example 83] | 6.56 |
| O=C(O)c1cc(CN2CCC(c3nc4cc(F)ccc4[nH]3)CC2)c2ccccn2c1=O [Example 86] | 7.38 |
| O=C(O)c1cc(CN2CCC(c3ccc(C(F)(F)F)cc3)CC2)c2ccccn2c1=O [Example 1, 4-oxo-1-({4-[4-(trifluoromethyl)phenyl]piperidin-1-yl}methyl)-4H-quinolizine-3-carboxylic Acid] | 6.26 |
| O=C(O)c1cc(CN2CCCC(O)C2)c2ccccn2c1=O (stereo not drawn) [Example 24] | 5.06 |
